In general, DC50 refers to the midpoint of the concentration-degradation curve.

In experiment [1] the target is bromodomain of SMARCA2 protein (Homo sapiens (Human), UniProt P40337+P51531). In words: SMARCA2 bromodomain ternary binding TR-FRET assay (with VCB). The note with it: with saturating VCB (5 μM); read-out: IC50 (SM 2_T) ternary binding potency in SMARCA2 FRET assay. From the text:
Recombinant bromodomain of SMARCA2 protein was purchased from Active Motif (Catalog #: 31449). VHL/ElonginB/ElonginC (VCB)N-terminal his6-tagged VHL (“his6” disclosed as SEQ ID NO: 4) (uniprot accession number P40337; M54-D213; […] […] […] (SEQ ID NO: 1)), Elongin B (Q15370; M1-K104; […] […] (SEQ ID NO: 2)), Elongin C (Q15369; M17-C112; […] […] (SEQ ID NO: 3)) complex were co-expressed and the complex was purified by Ni-affinity, TEV protease was then used to remove his6-tagged (SEQ ID NO: 4), and the complex was further purified by size-exclusion chromatography before use.
The inhibitory activity of compounds was evaluated in vitro using TR-FRET assay with white 384-well low volume microplate (PerkinElmer ProxiPlate Plus), in which the compound competes the same binding site with the ligand, and thus lead to dose-dependent TR-FRET signal reduction. The cooperativity of the compounds for ternary complex formation with E3 ligase was evaluated in the absence or presence of saturating concentrations of VCB. Testing compounds were dissolved in DMSO at […] and tested in 9-dose IC50. The assay mixture was prepared by mixing SMARCA2 (10 nM final), biotinylated probe (25 nM final), and assay buffer or VCB (5 μM) in 1×AlphaLISA Epigenetics Buffer (PerkinElmer AL008F) with 1 mM TCEP. The compounds in DMSO were added to each well in 3-fold serial dilution by dispenser (TECAN D300E) and incubate for 20 minutes at room temperature before addition of detection reagents, Lance Eu W1024 anti-6×His (0.6 nM final, PerkinElmer AD0110) and Streptavidin Surelight APC (6 nM final, PerkinElmer CR130-100). The plate was then sealed and further incubated at 4° C. overnight in dark, and then was read by Envision multimode plate reader (PerkinElmer, 2102-0010). The ratio of florescence signal at 665/620 was used in data analysis. Percentage inhibition was calculated by % inhibition=100×(FDMSO-F)/(FDMSO-FPC), in which FDMSO is DMSO control, and FPC is positive control. IC50 values were determined from dose response curve by fitting the percent inhibition against compound concentration using GraphPad Prism software.
A general note: Time-resolved FRET reads energy transfer from a long-lived donor to a nearby acceptor.

The target in experiment [2] is SMARCA2 (Homo sapiens (Human), UniProt P51531). Put plainly: In Cell Western SMARCA2 degradation in NCIH520 cells. The experiment is classed as cell-based. The conditions noted are these: for DC50: H520 cells, overnight, read-out: DC50 (SM2_H520) SMARCA2 degradation potency; for Dmax: NCI-H520, overnight, read-out: Dmax % (SM2_H520) maximum SMARCA2 degradation within the concentrations tested. As for the experimental part: (§1) Compound titration and cell culture: Compounds were dissolved in DMSO to make 10 mM stock and 3-fold series dilutions were further conducted keeping the highest concentration 10 μM. NCIH1693 and NCIH520 cells were maintained in PRMI 1640 medium (Corning Cellgro, Catalog #:10-040-CV) supplemented with 10% v/v FBS (GE Healthcare, Catalog #: SH30910.03) by splitting 1:3 twice a week.
(§2) To determine SMACRA2 and SMARCA4 protein degradation DC50 values in NCIH1693 and NCIH520 cells by In Cell Western (ICW) analysis. Cells were trypsinized and 30 thousand cells/well were seeded into 384-well plates and were allowed to grow for 5 hours at 37° C. Eight-point, 3-fold serial dilutions of compounds from 10 mM stocks were added to the cells (using digital Dispenser D300-Tecan, keeping highest concentration 10 μM and normalizing with DMSO at the highest dispensed volume). Plates were incubated at 37° C. for overnight (maximum 18 hours). Cells incubated with DMSO was used as a vehicle control.
(§3) To perform In Cell Western, medium was removed from all the wells leaving cells attached to the surface. After removing the medium, cells were fixed within the plates with 40 μL of 4% formaldehyde by incubating at room temperature for 30 minutes, and then permeabilized with wash buffer (1×PBS with 0.1% Triton X-100) by washing the plate 5 times with 50 μL/well. Before labeling with primary antibodies, cells were blocked with 30 μL/well of blocking buffer (Licor Odyssey blocking buffer PBS #927-40000) for 30 minutes at room temperature. To measure SMARCA2 or SMARCA4 proteins, cells were labeled with 20 μL/well of anti SMARCA2 or SMACRA4 antibodies (Cell Signaling BRM #11966S 1:1000, Cell Signaling BRG #49360S 1:1000) diluted in Li-Cor Odyssey blocking buffer-PBS #927-40000, followed by overnight incubation at 4° C.
(§4) The next day, plates were washed 5×5 minutes with 50 μL/well of washing buffer to remove all the excess primary antibody and then 20 μL from a mixture of secondary antibody and fluorescent DNA specific dye (Goat anti rabbit 1:500 IRDye-800CW #92632211, and DRAQ5™ 1:2000-#ab108410) was added to each well. Plates were incubated for 1 hour at room temperature with gentle rocking. Cells were washed 5 times with 50 μL/well wash buffer, followed by one last wash with DI water, followed by 10 mins drying at 37° C. oven before scanning. Plates were scanned using Li-Cor Odyssey CLx imaging system to acquire integrated intensities at 700 nm and 800 nm. SMARCA signals were normalized to total cell count and then these normalized values were used to calculate the percent degradation relative to DMSO control and maximum inhibition. DC50s were calculated by using the GraphPad Prism4 program based on sigmoidal dose response equation ([Inhibitor] vs. normalized response−Variable slope).

Experiment [3] has as its target SMARCA4 (Homo sapiens (Human), UniProt P51532). In words: In Cell Western SMARCA4 degradation in NCIH520 cells. The format is cell-based. The note with it: for DC50: H520 cells, overnight, read-out: DC50 (SM4_H520) SMARCA4 degradation potency; for Dmax: NCI-H520, overnight, read-out: Dmax % (SM4_H520) maximum SMARCA4 degradation within the concentrations tested. The procedure:
as §1, §2, §3, §4

Experiment [4] concerns NCIH1693 cells. Put plainly: Cell proliferation assay (ATPlite) in NCIH1693 cells. The experiment is classed as cell-based. The note with it: Homo sapiens, NCI-H1693, 96 h, day 4, read-out: IC50 (PRO_H1693) antiproliferation potency. As for the experimental part: One thousand NCIH1693 or NCIH1703 cells per well were seeded in 96 well plate and incubated at 37° C. for 5 hrs. A series of three-fold dilution of compounds from 10 mM stock concentration were added to the cells by using digital Dispenser D300-Tecan, keeping highest concentration 10 μM and normalizing with DMSO at the highest dispensed volume). Cells incubated with DMSO was used as a vehicle control. After compound treatment plates were incubated at 37° C. for 4 days and cell viability was measured by measuring ATP content from the cell lysate using ATPlite Luminescence assay system (PerkinElmer Cat. no #6016941). Percentage of viable cells, relative to DMSO vehicle control and maximum inhibition, was calculated and plotted in Graphpad Prism ([Inhibitor] vs. normalized response−Variable slope) to determine cell proliferation IC50 values on day 4.

In experiment [5] the test system is SMARCA4 mutated cancer cells. The conditions noted are these: Vangamudi et al. Cancer Res 2015; cited from earlier work.

Each structure is given as a SMILES string. Bounds are passed on as bounds.

Chain of bromodomain of SMARCA2 protein (P51531 whole entry, looked up): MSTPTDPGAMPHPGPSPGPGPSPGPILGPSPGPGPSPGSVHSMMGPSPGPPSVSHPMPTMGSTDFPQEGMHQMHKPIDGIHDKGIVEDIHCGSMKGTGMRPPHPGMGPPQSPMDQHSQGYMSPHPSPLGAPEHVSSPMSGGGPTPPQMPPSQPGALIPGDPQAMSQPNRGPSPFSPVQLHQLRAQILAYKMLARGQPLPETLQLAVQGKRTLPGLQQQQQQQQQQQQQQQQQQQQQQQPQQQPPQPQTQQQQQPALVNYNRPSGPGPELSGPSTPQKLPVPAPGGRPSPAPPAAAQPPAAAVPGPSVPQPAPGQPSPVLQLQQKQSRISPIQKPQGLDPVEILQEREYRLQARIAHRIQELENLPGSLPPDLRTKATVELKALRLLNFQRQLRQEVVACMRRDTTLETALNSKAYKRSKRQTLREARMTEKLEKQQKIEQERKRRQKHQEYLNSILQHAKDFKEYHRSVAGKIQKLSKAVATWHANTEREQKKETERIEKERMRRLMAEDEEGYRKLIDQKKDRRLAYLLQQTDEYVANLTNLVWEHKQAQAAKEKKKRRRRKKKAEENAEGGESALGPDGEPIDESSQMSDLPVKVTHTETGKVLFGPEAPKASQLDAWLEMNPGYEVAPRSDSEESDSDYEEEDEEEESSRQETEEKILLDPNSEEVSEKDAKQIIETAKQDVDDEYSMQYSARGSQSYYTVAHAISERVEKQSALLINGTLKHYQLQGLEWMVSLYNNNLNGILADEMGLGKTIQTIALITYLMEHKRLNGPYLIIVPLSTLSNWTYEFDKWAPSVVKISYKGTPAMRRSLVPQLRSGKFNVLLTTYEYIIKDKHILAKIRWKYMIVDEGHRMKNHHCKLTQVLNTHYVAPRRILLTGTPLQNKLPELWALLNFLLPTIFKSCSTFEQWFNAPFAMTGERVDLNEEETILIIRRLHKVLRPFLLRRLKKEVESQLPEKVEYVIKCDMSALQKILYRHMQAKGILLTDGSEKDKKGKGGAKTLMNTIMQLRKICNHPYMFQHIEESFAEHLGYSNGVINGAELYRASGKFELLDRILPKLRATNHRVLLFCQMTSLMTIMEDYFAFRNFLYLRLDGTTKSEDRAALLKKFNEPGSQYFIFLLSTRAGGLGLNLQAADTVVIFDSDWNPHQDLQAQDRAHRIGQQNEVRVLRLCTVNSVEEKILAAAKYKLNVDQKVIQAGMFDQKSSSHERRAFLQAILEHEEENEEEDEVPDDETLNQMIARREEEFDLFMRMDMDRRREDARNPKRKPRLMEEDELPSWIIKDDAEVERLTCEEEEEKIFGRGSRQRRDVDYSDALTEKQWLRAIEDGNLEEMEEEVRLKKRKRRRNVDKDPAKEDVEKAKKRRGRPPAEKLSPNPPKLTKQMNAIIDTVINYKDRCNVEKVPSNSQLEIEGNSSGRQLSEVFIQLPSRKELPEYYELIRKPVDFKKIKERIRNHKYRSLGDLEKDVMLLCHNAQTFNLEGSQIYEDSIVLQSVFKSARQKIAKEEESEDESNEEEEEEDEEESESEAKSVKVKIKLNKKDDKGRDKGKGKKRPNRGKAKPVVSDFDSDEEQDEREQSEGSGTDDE
Chain of bromodomain of SMARCA2 protein (P40337 whole entry, looked up): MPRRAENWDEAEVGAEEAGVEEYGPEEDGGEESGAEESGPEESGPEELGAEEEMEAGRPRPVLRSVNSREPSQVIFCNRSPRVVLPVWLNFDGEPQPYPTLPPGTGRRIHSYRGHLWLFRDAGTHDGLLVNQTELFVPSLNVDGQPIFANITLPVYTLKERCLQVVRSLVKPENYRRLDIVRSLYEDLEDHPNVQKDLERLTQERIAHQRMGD
Chain of bromodomain of SMARCA2 protein (Q15370 whole entry partner, looked up): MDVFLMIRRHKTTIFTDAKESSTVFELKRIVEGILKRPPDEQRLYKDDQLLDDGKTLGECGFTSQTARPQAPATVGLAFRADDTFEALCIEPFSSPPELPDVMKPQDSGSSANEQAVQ
Chain of bromodomain of SMARCA2 protein (Q15369 whole entry partner, looked up): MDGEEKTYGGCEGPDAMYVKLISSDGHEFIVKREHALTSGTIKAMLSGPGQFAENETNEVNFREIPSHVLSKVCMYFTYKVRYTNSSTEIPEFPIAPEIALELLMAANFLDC
Chain of SMARCA2 (P51531 whole entry): as the sequence (P51531 whole entry, looked up) above
Chain of SMARCA4 (P51532 whole entry): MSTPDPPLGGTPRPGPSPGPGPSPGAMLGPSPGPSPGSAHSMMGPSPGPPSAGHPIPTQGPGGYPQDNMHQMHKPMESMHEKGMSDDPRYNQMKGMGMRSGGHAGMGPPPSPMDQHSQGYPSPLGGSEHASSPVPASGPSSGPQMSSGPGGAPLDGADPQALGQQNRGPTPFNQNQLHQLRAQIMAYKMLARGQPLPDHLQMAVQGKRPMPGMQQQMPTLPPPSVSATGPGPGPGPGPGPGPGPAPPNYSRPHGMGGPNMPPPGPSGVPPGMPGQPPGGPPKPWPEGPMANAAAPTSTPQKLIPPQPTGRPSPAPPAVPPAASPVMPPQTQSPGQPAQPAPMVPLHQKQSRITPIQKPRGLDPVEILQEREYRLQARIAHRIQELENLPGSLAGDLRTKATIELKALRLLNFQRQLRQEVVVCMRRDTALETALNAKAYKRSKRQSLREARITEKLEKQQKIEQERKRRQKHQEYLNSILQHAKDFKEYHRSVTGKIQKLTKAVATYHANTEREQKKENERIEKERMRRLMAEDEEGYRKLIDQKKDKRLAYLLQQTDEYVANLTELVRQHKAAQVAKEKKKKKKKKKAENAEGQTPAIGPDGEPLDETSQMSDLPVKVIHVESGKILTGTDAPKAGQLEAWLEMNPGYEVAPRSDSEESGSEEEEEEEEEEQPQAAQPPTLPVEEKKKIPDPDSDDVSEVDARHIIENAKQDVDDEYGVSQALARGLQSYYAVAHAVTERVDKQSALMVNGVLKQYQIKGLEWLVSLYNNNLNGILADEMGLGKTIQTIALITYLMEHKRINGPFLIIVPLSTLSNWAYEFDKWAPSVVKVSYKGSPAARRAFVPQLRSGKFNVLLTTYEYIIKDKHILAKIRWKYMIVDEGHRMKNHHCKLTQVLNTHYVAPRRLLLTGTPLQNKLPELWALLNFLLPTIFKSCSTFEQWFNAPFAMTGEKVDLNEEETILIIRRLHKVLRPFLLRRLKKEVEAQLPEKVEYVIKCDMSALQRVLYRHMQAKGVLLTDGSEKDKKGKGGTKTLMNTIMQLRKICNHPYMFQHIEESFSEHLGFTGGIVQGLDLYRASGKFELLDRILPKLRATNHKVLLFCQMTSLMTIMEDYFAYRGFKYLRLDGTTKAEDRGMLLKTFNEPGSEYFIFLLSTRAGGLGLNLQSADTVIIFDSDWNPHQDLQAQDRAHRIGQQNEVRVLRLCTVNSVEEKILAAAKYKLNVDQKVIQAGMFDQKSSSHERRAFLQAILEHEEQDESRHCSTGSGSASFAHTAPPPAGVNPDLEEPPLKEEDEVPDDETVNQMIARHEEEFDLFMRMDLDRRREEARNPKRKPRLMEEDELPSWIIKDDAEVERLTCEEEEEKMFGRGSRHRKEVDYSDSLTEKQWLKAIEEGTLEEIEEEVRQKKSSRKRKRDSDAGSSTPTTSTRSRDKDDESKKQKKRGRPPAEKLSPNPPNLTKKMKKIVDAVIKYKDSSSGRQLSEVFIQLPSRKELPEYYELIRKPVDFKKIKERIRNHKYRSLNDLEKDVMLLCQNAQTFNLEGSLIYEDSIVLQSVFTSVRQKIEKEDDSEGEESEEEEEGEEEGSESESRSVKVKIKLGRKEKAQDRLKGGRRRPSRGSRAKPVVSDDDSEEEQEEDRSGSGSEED

For `Cc1ncsc1-c1ccc([C@H](C)NC(=O)[C@@H]2C[C@@H](O)CN2C(=O)[C@@H](NC(=O)CN2CCN3c4cc(-c5ccccc5O)nnc4NCC3C2)C(C)(C)C)cc1` (single isomer, unassigned) [Example 1a], the IC50 in experiment [1] and in experiment [4] was 100 to 1000 nM each time. Further, the DC50 in experiment [2] and in experiment [3] was 100 to 1000 nM each time. In addition, the Dmax in experiment [2] and in experiment [3] was over 75% each time.

Consider `Cc1ncsc1-c1ccc([C@H](C)NC(=O)[C@@H]2C[C@@H](O)CN2C(=O)C(c2cc(OCCN3CCC(CN4CCN5c6cc(-c7ccccc7O)nnc6NCC5C4)CC3)no2)C(C)C)cc1` (stereo in doubt) [Example 5, (2S,4R)-4-hydroxy-1-((2S)-2-(3-(2-(4-((2-(2-hydroxyphenyl)-5,6,6a,7,9,10-hexahydro-8H-pyrazino[1′,2′:4,5]pyrazino[2,3-c]pyridazin-8-yl)methyl)piperidin-1-yl)ethoxy)isoxazol-5-yl)-3-methylbutanoyl)-N-((S)-1-(4-(4-methylthiazol-5-yl)phenyl)ethyl)pyrrolidine-2-carboxamide], for which, in experiment [1], the IC50 was under 100 nM. In experiment [2], the half-maximal degradation concentration (DC50) was under 100 nM and the Dmax is over 75%. Also, in experiment [3], the DC50 was under 100 nM and the Dmax is over 75%.

With `Cc1ncsc1-c1ccc([C@H](C)NC(=O)[C@@H]2C[C@@H](O)CN2C(=O)[C@@H](NC(=O)CN2CCC(CN3CCN4c5cc(-c6ccccc6O)nnc5NCC4C3)CC2)C(C)(C)C)cc1` (stereo partly drawn) [Example 3, (2S,4R)-4-hydroxy-1-((2S)-2-(2-(4-((2-(2-hydroxyphenyl)-5,6,6a,7,9,10-hexahydro-8H-pyrazino[1′,2′:4,5]pyrazino[2,3-c]pyridazin-8-yl)methyl)piperidin-1-yl)acetamido)-3,3-dimethylbutanoyl)-N-((S)-1-(4-(4-methylthiazol-5-yl)phenyl)ethyl)pyrrolidine-2-carboxamide], the IC50 in experiment [1] is under 100 nM. For the same compound, in experiment [2], the DC50 is under 100 nM and the Dmax is over 75%. Also, in experiment [3], the DC50 lay within 100 to 1000 nM and the Dmax was over 75%.

Turning to `Cc1ncsc1-c1ccc([C@H](C)NC(=O)[C@@H]2C[C@@H](O)CN2C(=O)[C@@H](c2cc(OCCN3CCN4c5cc(-c6ccccc6O)nnc5NCC4C3)no2)C(C)C)cc1` (stereo partly drawn) [Example 4, (2S,4R)-4-hydroxy-1-((2R)-2-(3-(2-(2-(2-hydroxyphenyl)-5,6,6a,7,9,10-hexahydro-8H-pyrazino[1′,2′:4,5]pyrazino[2,3-c]pyridazin-8-yl)ethoxy)isoxazol-5-yl)-3-methylbutanoyl)-N-((S)-1-(4-(4-methyl-1λ^3,3λ^2-thiazol-5-yl)phenyl)ethyl)pyrrolidine-2-carboxamide], the IC50 in experiment [1] and in experiment [4] was under 100 nM each time. In addition, the DC50 in experiment [2] is under 100 nM; in experiment [3], 100 to 1000 nM. Further, the Dmax in experiment [2] and in experiment [3] was over 75% throughout.

For the compound `O=C(/C=C/N1C[C@H]2C[C@@H]1CN2c1ccccn1)c1ccccc1O` [PFI-3], the “effects on cell proliferation inhibition” value in experiment [5] is “none to minor effects”.

Source of the values: patent publication US20240018158A1, “BRM TARGETING COMPOUNDS AND ASSOCIATED METHODS OF USE” (Prelude Therapeutics Incorporated, priority 2020, published 2024).
